From patent US9096593B2, “Compounds and methods for kinase modulation, and indications therefor” (Plexxikon Inc., priority 2009, dated 2015)

Legend:
BCR-KIT/BaF3 cells = BCR-KIT/BaF3 cells (Homo sapiens, UniProt P10721); assay: BCR-KIT/BaF3 cell proliferation assay (ATPlite); assay type: cell-based; settings: read-out: BCR/BaF3 (IC50 μM) Kit
Protocol: Compounds are assessed in a variety of cell based assays. For example BCR-FMS/BaF3, BCR-KIT/BaF3, M-NFS-60, M-07e, and BAC1.2F5 cell proliferation assays are used to assess inhibitory activity of Fms or Kit and MV-4-11 cell proliferation assay is used to assess inhibitory activity in Flt-3. Reagent and assay conditions are as follows: • BCR-FMS/BaF3 and BCR-KIT/BaF3 cells: • Maintained in RPMI containing 10% FBS, 1% PenStrep, 1% NEAA, and 1% L-Glutamine, supplemented with 1 mg/mL G418 and 5% WEHI-CM (or recombinant murine IL-3). • Confluent cells are split 1:50 to 1:100 every 3-4 days. • M-NFS-60 cells (ATCC #CRL-1838): • Maintained in RPMI containing 10% FBS, 1% Hepes, 1% NaPyruvate, and 0.45% Glucose, supplemented with 62 ng/mL murine M-CSF. • Confluent cells are split 1:20 every 3-4 days. • M-07e cells (DSMZ #ACC 104): • Maintained in IMDM containing 10% FBS, supplemented with either 200 ng/mL human SCF or […] SCF (R&D Systems 255-SC). • Confluent cells are split 1:5 to 1:10 every 3-4 days. • BAC1.2F5 cells: • Maintained in Alpha-MEM containing 10% Newborn Calf Serum (Invitrogen #26010-074) supplemented with 36 ng/mL murine M-CSF. • Confluent cells are split 1:4 every 3-4 days. • MV-4-11 cells: • Maintained in Iscove's Modified Dulbecco's Medium containing 10% FBS. • Confluent cells are split 1:4 every 3-4 days. On day 1, cells are counted, then centrifuged in a conical tube for 5 minutes at 1000 rpm. The supernatant is removed and cells are re-suspended as follows: • BCR-FMS/BaF3 and BCR-KIT/BaF3: resuspend in growth media+1 mg/mL G418 (without WEHI/IL-3) to 2×10^5 cells/mL. • M-NFS-60: resuspend in growth media +62 ng/mL murine M-CSF to 5×10^5 cells/mL. • M-07e: resuspend in growth media +200 ng/mL human SCF to 5×10^5 cells/mL. • BAC1.2F5: resuspend in growth media +36 ng/mL murine M-CSF to 1.4×10^5 cells/mL. • MV-4-11: resuspend in growth media +10% FBS to 5×10^5 cells/mL. The cells are plated (50 μL) in each well of a 96-well dish (Corning 3610) and incubated at 37° C. in 5% CO2 overnight, cells plated to a final concentration of cells as follows: • BCR-FMS/BaF3 and BCR-KIT/BaF3: 10,000 cells per well. • M-NFS-60: 25,000 cells per well. • M-07e: 25,000 cells per well. • BAC1.2F5: 7,000 cells per well. • MV-4-11: 25,000 cells per well. On day 2, compound at a maximum concentration of 5 mM is serially diluted 1:3 for a total of 8 point titration with DMSO as a control. A 1 μL aliquot of each dilution point is added to 249 μL growth media and 50 μL is added to a well containing cells, providing 10 μM compound for the maximum concentration point. The cells are incubated for 3 days at 37° C. in 5% CO2. On day 5, ATPlite 1 step Luminescence Assay System (Perkin Elmer #6016739) is brought to room temperature along with the cell cultures. ATPlite is added to each well as follows: • BCR-FMS/BaF3 and BCR-KIT/BaF3: 25 μL per well. • M-NFS-60: 25 μL per well. • M-07c: 40 μL per well. • BAC1.2F5: 50 μL per well. • MV-4-11: 40 μL per well. The cells are incubated at room temperature for 10 minutes, then luminescence is read on Safire reader. The measured luminescence correlates directly with cell number, such that the reading as a function of compound concentration is used to determine the IC50 value.

[1] = Turbidity assay of relative solubility in aqueous buffers; assay type: physicochemical; settings: for turbidity threshold (L, M, H) 1.4: pH 1.4 as headed (method: SGF pH 1.5); for turbidity threshold (L, M, H) 4.5: pH 4.5 (SIF); for turbidity threshold (L, M, H) 6.8: pH 6.8 (SIF); for turbidity threshold (L, M, H) 7.4: pH 7.4 (HEPES)
Summary of the method: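 DMSO stocks (25 mM) were serially diluted 1:1 and spiked into SGF pH 1.5 (0.5M NaCl), SIF pH 4.5 and 6.8 (0.05M NaH2PO4) or HEPES pH 7.4 (10 mM HEPES, 150 mM NaCl). Absorbance was read at 490, 535 and 650 nm. Value is the concentration crossing OD 0.01, averaged over the three wavelengths.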

Sequence of BCR-KIT/BaF3 cells (P10721 26-976 limits assumed, change not shown): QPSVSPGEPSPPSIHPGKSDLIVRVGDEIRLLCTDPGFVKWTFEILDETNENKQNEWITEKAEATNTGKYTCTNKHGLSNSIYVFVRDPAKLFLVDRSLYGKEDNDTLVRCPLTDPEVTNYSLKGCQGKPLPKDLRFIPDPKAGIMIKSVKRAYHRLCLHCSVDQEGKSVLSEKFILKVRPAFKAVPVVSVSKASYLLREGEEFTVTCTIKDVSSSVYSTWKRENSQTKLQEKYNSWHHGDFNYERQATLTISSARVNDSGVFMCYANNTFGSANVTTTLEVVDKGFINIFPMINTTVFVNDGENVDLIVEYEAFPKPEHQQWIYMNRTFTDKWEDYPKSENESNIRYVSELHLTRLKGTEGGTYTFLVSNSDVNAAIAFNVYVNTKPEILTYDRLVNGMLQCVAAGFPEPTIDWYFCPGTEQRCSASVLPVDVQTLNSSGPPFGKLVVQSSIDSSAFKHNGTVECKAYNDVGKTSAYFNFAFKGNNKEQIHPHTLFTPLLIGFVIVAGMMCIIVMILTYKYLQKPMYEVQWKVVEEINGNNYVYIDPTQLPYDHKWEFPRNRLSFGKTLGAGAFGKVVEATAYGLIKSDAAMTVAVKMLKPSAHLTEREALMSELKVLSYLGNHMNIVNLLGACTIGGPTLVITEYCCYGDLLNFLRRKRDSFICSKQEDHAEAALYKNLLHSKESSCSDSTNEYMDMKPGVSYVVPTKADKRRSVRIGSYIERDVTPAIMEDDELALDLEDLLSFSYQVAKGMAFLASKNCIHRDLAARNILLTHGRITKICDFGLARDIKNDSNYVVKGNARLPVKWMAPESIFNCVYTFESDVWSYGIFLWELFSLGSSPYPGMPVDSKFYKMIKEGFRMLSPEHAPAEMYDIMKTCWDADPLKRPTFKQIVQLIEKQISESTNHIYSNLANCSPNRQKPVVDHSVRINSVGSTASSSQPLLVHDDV

Structure (SMILES)	IC50 (BCR-KIT/BaF3 cells)	turbidity threshold (L, M, H) 1.4 [1]	turbidity threshold (L, M, H) 4.5 [1]	turbidity threshold (L, M, H) 6.8 [1]	turbidity threshold (L, M, H) 7.4 [1]
COc1cnc2[nH]cc(Cc3ccc(NCc4ccc(OC)nc4)nc3F)c2c1 [Compound P-2030, [6-Fluoro-5-(5-methoxy-1H-pyrrolo[2,3-b]pyridin-3-ylmethyl)-pyridin-2-yl]-(6-methoxy-pyridin-3-ylmethyl)-amine]	> 0.1 µM	H (high solubility if the threshold concentration is >250 μM)	M (moderate solubility if the threshold concentration is 31.3 μM to 250 μM)	M (moderate solubility if the threshold concentration is 31.3 μM to 250 μM)	L (low solubility if the threshold concentration is <31.3 μM)
COc1ccc(CNc2ncc(Cc3c[nH]c4ncc(Cl)cc34)cn2)cn1 [Compound P-2038, [5-(5-Chloro-1H-pyrrolo[2,3-b]pyridin-3-ylmethyl)-pyrimidin-2-yl]-(6-methoxy-pyridin-3-ylmethyl)-amine]	> 0.1 µM	H (high solubility if the threshold concentration is >250 μM)	L (low solubility if the threshold concentration is <31.3 μM)	L (low solubility if the threshold concentration is <31.3 μM)	L (low solubility if the threshold concentration is <31.3 μM)
COc1ncc(F)cc1CNc1ncc(Cc2c[nH]c3ncc(C)cc23)cn1 [Compound P-2061, (5-Fluoro-2-methoxy-pyridin-3-ylmethyl)-[5-(5-methyl-1H-pyrrolo[2,3-b]pyridin-3-ylmethyl)-pyrimidin-2-yl]-amine]	> 0.1 µM	H (high solubility if the threshold concentration is >250 μM)	M (moderate solubility if the threshold concentration is 31.3 μM to 250 μM)	M (moderate solubility if the threshold concentration is 31.3 μM to 250 μM)	L (low solubility if the threshold concentration is <31.3 μM)
COc1ccc(CNc2ncc(Cc3c[nH]c4ncc(C)cc34)cn2)cn1 [Compound P-2057, (6-Methoxy-pyridin-3-ylmethyl)-[5-(5-methyl-1H-pyrrolo[2,3-b]pyridin-3-ylmethyl)-pyrimidin-2-yl]-amine]	> 0.1 µM	H (high solubility if the threshold concentration is >250 μM)	L (low solubility if the threshold concentration is <31.3 μM)	L (low solubility if the threshold concentration is <31.3 μM)	M (moderate solubility if the threshold concentration is 31.3 μM to 250 μM)
Fc1cc(Cc2c[nH]c3ncc(Cl)cc23)cnc1NCc1ccc(C(F)(F)F)nc1 [Compound P-2172, [5-(5-Chloro-1H-pyrrolo[2,3-b]pyridin-3-ylmethyl)-3-fluoro-pyridin-2-yl]-(6-trifluoromethyl-pyridin-3-ylmethyl)-amine]	< 0.1 µM	H (high solubility if the threshold concentration is >250 μM)	L (low solubility if the threshold concentration is <31.3 μM)	L (low solubility if the threshold concentration is <31.3 μM)	L (low solubility if the threshold concentration is <31.3 μM)
COc1cnc2[nH]cc(Cc3ccc(NCc4cncc(F)c4)nc3F)c2c1 [Compound P-2028, [6-Fluoro-5-(5-methoxy-1H-pyrrolo[2,3-b]pyridin-3-ylmethyl)-pyridin-2-yl]-(5-fluoro-pyridin-3-ylmethyl)-amine]	> 0.1 µM	H (high solubility if the threshold concentration is >250 μM)	M (moderate solubility if the threshold concentration is 31.3 μM to 250 μM)	M (moderate solubility if the threshold concentration is 31.3 μM to 250 μM)	M (moderate solubility if the threshold concentration is 31.3 μM to 250 μM)
COc1ncccc1CNc1ccc(Cc2c[nH]c3ncccc23)c(F)n1 [Compound P-2045, [6-Fluoro-5-(1H-pyrrolo[2,3-b]pyridin-3-ylmethyl)-pyridin-2-yl]-(2-methoxy-pyridin-3-ylmethyl)-amine]	> 0.1 µM	H (high solubility if the threshold concentration is >250 μM)	M (moderate solubility if the threshold concentration is 31.3 μM to 250 μM)	M (moderate solubility if the threshold concentration is 31.3 μM to 250 μM)	M (moderate solubility if the threshold concentration is 31.3 μM to 250 μM)
COc1ncc(CNc2ccc(Cc3c[nH]c4ncc(Cl)cc34)c(F)n2)cc1F [Compound P-2165, [5-(5-Chloro-1H-pyrrolo[2,3-b]pyridin-3-ylmethyl)-6-fluoro-pyridin-2-yl]-(5-fluoro-6-methoxy-pyridin-3-ylmethyl)-amine]	> 0.1 µM	L (low solubility if the threshold concentration is <31.3 μM)	L (low solubility if the threshold concentration is <31.3 μM)	L (low solubility if the threshold concentration is <31.3 μM)	L (low solubility if the threshold concentration is <31.3 μM)
Cc1cnc2[nH]cc(Cc3cnc(NCc4ccc(C(F)(F)F)nc4)c(F)c3)c2c1 [Compound P-2146, [3-Fluoro-5-(5-methyl-1H-pyrrolo[2,3-b]pyridin-3-ylmethyl)-pyridin-2-yl]-(6-trifluoromethyl-pyridin-3-ylmethyl)-amine]	> 0.1 µM	H (high solubility if the threshold concentration is >250 μM)	M (moderate solubility if the threshold concentration is 31.3 μM to 250 μM)	M (moderate solubility if the threshold concentration is 31.3 μM to 250 μM)	L (low solubility if the threshold concentration is <31.3 μM)
FC(F)(F)c1ccncc1CNc1ccc(Cc2c[nH]c3ncc(Cl)cc23)cn1 [Compound P-2063, [5-(5-Chloro-1H-pyrrolo[2,3-b]pyridin-3-ylmethyl)-pyridin-2-yl]-(4-trifluoromethyl-pyridin-3-ylmethyl)-amine]	> 0.1 µM	–	–	–	–
COc1ccc(CNc2ccc(Cc3c[nH]c4ncc(C)cc34)c(F)n2)c(OC)n1 [Compound P-2097, (2,6-Dimethoxy-pyridin-3-ylmethyl)-[6-fluoro-5-(5-methyl-1H-pyrrolo[2,3-b]pyridin-3-ylmethyl)-pyridin-2-yl]-amine]	> 0.1 µM	–	–	–	–
Cc1ccc(CNc2ccc(Cc3c[nH]c4ncc(C)cc34)c(F)n2)nc1 [Compound P-2131, [6-Fluoro-5-(5-methyl-1H-pyrrolo[2,3-b]pyridin-3-ylmethyl)-pyridin-2-yl]-(5-methyl-pyridin-2-ylmethyl)-amine]	> 0.1 µM	–	–	–	–
